Reference: PMC11393731, “Sidechain structure–activity relationships of cyclobutane-based small molecule αvβ3 antagonists” (RSC Medicinal Chemistry, 2024)
Entries after “also recorded” stand apart in the source; their conditions may differ. Where two headings read alike, the source gives them in different places.

Columns and labels:
αvβ3 = molecular target: T1, αvβ3 (Homo sapiens, UniProt P05106+P06756); experiment: αvβ3-mediated SK-Mel-2 melanoma cell adhesion to fibronectin; format: cell-based; settings: for inhibition at 5 µM: read-out: Adhesion % inhibition @5 μM
T1 construct: αvβ3-expressing U87-MG glioblastoma and SK-Mel-2 melanoma cells; host or cells: SK-Mel-2 human melanoma cells
T1 sequence (P06756 31-889 limits assumed): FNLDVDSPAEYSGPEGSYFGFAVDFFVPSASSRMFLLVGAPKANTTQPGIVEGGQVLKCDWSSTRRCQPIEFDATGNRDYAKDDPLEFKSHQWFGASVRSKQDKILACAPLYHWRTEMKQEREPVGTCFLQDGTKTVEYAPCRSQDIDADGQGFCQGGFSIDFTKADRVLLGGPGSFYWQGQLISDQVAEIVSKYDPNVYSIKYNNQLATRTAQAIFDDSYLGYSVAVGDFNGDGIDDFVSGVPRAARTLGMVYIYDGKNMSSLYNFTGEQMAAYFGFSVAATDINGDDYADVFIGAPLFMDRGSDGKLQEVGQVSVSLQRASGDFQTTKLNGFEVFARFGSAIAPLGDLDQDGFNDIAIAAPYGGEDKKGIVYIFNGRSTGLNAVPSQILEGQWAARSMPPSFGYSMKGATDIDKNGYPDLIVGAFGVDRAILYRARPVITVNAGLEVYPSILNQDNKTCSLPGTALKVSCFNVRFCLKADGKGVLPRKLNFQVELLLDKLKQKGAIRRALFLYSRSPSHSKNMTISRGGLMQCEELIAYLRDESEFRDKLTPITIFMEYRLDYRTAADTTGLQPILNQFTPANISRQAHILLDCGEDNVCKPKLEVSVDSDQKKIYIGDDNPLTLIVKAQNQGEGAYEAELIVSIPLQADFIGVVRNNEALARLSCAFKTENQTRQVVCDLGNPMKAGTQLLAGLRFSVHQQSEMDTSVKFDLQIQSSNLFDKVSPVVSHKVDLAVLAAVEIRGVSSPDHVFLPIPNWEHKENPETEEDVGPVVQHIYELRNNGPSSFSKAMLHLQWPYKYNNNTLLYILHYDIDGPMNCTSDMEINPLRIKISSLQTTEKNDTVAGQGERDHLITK
T1 sequence (P06756 891-1048 partner limits assumed): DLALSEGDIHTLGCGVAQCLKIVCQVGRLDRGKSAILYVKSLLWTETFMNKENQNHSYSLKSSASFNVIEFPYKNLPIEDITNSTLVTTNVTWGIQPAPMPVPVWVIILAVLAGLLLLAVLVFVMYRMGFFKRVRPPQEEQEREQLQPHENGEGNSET
T1 sequence (P05106 27-788): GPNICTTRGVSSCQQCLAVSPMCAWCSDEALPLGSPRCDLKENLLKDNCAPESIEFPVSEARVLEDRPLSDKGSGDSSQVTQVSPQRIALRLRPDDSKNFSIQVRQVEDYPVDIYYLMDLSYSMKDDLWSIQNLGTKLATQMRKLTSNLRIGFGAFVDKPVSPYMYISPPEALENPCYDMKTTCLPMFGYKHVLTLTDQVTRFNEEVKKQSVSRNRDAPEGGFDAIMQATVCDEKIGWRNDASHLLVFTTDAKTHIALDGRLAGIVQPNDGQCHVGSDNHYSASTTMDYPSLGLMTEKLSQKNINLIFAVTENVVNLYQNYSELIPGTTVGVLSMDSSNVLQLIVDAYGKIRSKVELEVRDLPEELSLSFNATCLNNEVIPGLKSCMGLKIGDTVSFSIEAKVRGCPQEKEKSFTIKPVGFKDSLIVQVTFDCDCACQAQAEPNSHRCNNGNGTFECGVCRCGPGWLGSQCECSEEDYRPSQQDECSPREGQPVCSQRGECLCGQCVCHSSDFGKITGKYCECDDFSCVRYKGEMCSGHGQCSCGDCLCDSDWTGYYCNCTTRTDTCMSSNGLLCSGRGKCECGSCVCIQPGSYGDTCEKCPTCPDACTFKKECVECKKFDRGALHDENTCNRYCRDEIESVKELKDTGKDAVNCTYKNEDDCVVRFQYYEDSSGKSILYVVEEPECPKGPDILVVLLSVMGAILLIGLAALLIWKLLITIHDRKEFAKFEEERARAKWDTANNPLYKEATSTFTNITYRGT
Protocol: (§1) Cancer cell lines were obtained from ATCC (SK-Mel-2) or ECACC (U87-MG) and cultured in RPMI-1640 culture medium containing 10% foetal bovine serum (FBS), sodium pyruvate (1 mM) and L-glutamine (2 mM). All are human in origin. The αvβ3 adhesion assay was performed as previously described.[22,43]

[1] = tested on: U87-MG glioblastoma cells; experiment: U87-MG 3-D spheroid invasion assay; format: cell-based; settings: Homo sapiens, U-87 MG, mean ± SD
Protocol: Selected compounds were further investigated for effects on αvβ3-mediated cell invasion to model a key step in tumour progression and metastasis. U87-MG glioblastoma cells; a well-known αvβ3-expressing cell line model,[35,36] were used in a 3-D spheroid invasion model.[37]
as §1
Spheroids were formed from U87-MG cells (1000 cells per 30 μl hanging drop) according to the method of Nowicki and then embedded in collagen as follows.[37] Collagen I (1400 μL of 3 mg mL^−1) was added to a 1 mL Eppendorf tube on ice, supplemented with 0.2 mL of complete RPMI, and adjusted to pH 7.4 with 1 N NaOH. The collagen mixture was pipetted into each chamber of an 8-chamber cover glass and incubated at 37 °C for 45 minutes. Spheroids from hanging drops were transferred to each chamber of the cover glass, the medium allowed to evaporate, and then a 200 μL layer of collagen gel matrix was added to each chamber and incubated at 37 °C for 45 minutes. 200 μL of RPMI containing test compounds was added to each chamber and incubated at 37 °C, 5% CO2 for 7 days. The spheroids were observed frequently using inverted light microscopy at 10× objective lens, and images were captured and analysed using ImageJ.

[2] = Metabolic stability in mouse liver homogenates; format: in vitro ADME; settings: for half-life at 10 μM: liver homogenate (1:3), 37 °C, read-out: half-life of methyl ester cleavage to free acid
Protocol: The methyl esters in 1 and 54 were cleaved to the corresponding free acids with half-lives of 5.4 minutes and 3.6 minutes respectively (ESI ^†). This was expected as small esters are frequently used to mask carboxylic acids with rapid ester hydrolysis releasing the active carboxylic acid in biological systems.
Compound metabolism in liver (ex vivo) was studied using (1 : 3) tissue homogenates of mouse liver. Mouse livers, supplied by the Institute of Cancer Therapeutics (ICT), under Home Office license guidelines (see below) were homogenized in phosphate-buffered saline. Liver homogenates were spiked with compound of interest (10 μM final concentration) and incubated at 37 °C. Reaction aliquots were removed over a 120 minute period, proteins precipitated using acetonitrile (1 : 3), and compound and metabolites analyzed by liquid chromatography-mass spectrometry (LC–MS) at the appropriate SIR (single ion recording) channel.
Detection was performed on a Waters Alliance system using a photodiode array detector, and a Waters Micromass ZQ quadrupole electrospray mass spectrometer connected in series. Compound and metabolites were separated on a RPB reversed-phase high-performance liquid chromatography column (HiChrom) using a mobile phase of acetonitrile/water/0.1% formic acid, with a gradient from 20% to 70% acetonitrile over 30 minutes at 1.1 mL min^−1.
Any metabolic intermediates were detected as singularly charged ions and identified by mass spectrometry.

in vitro [3] = format: cell-based; settings: human
Excerpt: (§2) Compounds were screened for non-specific cytotoxicity using the MTT assay before use in anti-αvβ3 functional assays. Unlike normal cells, cancer cell survival is often independent of αvβ3, and checking for cytotoxicity ensures inhibition of adhesion and invasion are truly from αvβ3 inhibition rather than cell death. […] In general, aminopyridines 53 and 54 were more cytotoxic than most THN-containing mimetics.
as §1
(§3) Table S1 Cytotoxicity of compounds on the cell lines used in the functional assays (measured by MTT assay). Cells (2000 cells/well for Sk-Mel-2; 1000 cells/well for U87MG) were incubated for 96 hours at 37 °C in a total volume of 200 µL/well (180 μL medium + 20 μL test compound solution). After 96 hours, the medium was replaced by fresh medium containing 0.5 mg/ml (end conc.) MTT per well, incubated for 4 h then the plate processed and read as described in Sutherland et al. 1 […]
(§4) 1. M. Sutherland, A. Gordon, F. O. Al-Shammari, A. Throup, A. Cilia La Corte, H. Philippou, S. D.
(§5) Shnyder, L. H. Patterson and H. M. Sheldrake, Cancers, 2023, 15, 4023.
(§6) (also on this page, place not known: al.1 Supplementary Information (SI) for RSC Medicinal Chemistry. This journal is © The Royal Society of Chemistry 2024)
(§7) (1 picture or pasted object on this page, not shown here)

in vitro [4] = format: cell-based; settings: human; remark: listed apart in the source
Excerpt: as §2, §1, §3, §4, §5, §6, §7

C57BL/6 mice = experiment: In vivo dose tolerability in C57BL/6 mice; design: species or system mouse; settings: intraperitoneal, 4 consecutive days, female C57BL/6 mice
Protocol: Given compound 54's effectiveness at functional inhibition of αvβ3, its rapid conversion to a stable carboxylic acid, and our preference for developing an aminopyridine-based RGD mimetic over a THN-based one, 54 was therefore selected for in vivo dose tolerability studies in an immunocompetent C57BL/6 mouse model (Fig. 2).
Compound 54 was administered intraperitoneally three dose levels, up to its maximum soluble dose of 300 mg kg^−1 per day, for 4 consecutive days to female C57BL/6 immunocompetent mice, and mice were observed daily, and bodyweight measured frequently. […] Mo = mouse; Cont = solvent control.
Female adult C57BL/6 mice were used (Envigo, Blackthorn, UK). Mice all came from the same delivery and were randomly assigned to cages. They were kept in cages housed in isolation cabinets in an air-conditioned room with regular alternating cycles of light and darkness. They received Teklad 2018 diet (Envigo, Blackthorn, UK) and water ad libitum.
For evaluation of the safety of compound 54in vivo, the compound was dissolved in 15% DMSO/arachis oil, and then administered intraperitoneally as a single dose on four consecutive days, with the first day designated day 0, with 2 mice being treated at each dose level. The control was solvent administered intraperitoneally on the same schedule. […] Mice were observed daily for signs of deleterious effects, and bodyweight measured frequently.

[5] = SK-Mel-2 adhesion to fibronectin, mean ± SD
[6] = read-out: Adhesion % inhibition @50 μM, SK-Mel-2 adhesion to fibronectin, mean ± SD
[7] = SK-MEL-2, read-out: Adhesion % inhibition @50 μM (initial trial experiment), initial trial experiment, not tested further at this concentration

| IC50 (αvβ3; [5]) | inhibition at 5 µM (αvβ3; [5]) | inhibition at 50 µM (αvβ3; [7]) | IC50 at 96 h (in vitro [4]) | SMILES | inhibition at 10 µM [1] | also measured |
| --- | --- | --- | --- | --- | --- | --- |
| 49.5 ± 29.8 µM | 13.8 ± 9.7% |  | > 100 µM | Cc1cc(C)c(S(=O)(=O)N[C@H]2CC(=O)N([C@H]3C[C@@H](CCc4ccc5cccnc5n4)C3)C2=O)c(C)c1 [Compound 31] |  | inhibition at 50 µM (αvβ3; [6]): 60.9 ± 23.8% |
|  | 45.4 ± 13.7% |  |  | COC(=O)[C@H](CC(=O)N[C@H]1C[C@@H](CCc2ccc3c(n2)NCCC3)C1)NS(=O)(=O)c1ccccc1 [Compound 32] | 41.6 ± 4.7% |  |
| 1.2 ± 0.9 µM | 89.5 ± 8.7% |  |  | COC(=O)[C@H](CC(=O)N[C@H]1C[C@@H](CCc2ccc3c(n2)NCCC3)C1)NS(=O)(=O)c1c(C)cc(C)cc1C [Compound 33] | 33.7 ± 7.4% |  |
| 3.28 ± 0.01 µM | 60.2 ± 14.8% |  |  | O=C1C[C@H](NS(=O)(=O)c2ccccc2)C(=O)N1[C@H]1C[C@@H](CCc2ccc3c(n2)NCCC3)C1 [Compound 34] | 69.9 ± 1.8% | inhibition at 50 µM (αvβ3; [6]): 73.9 ± 24.6% |
| 1.8 ± 1 µM |  |  | 15.2 ± 5.5 µM | Cc1cc(C)c(S(=O)(=O)N[C@H]2CC(=O)N([C@H]3C[C@@H](CCc4ccc5c(n4)NCCC5)C3)C2=O)c(C)c1 [Compound 35] |  | inhibition at 0.5 µM (αvβ3; 0.5 μM, SK-Mel-2 adhesion to fibronectin): 45.6% |
| 13.6 ± 8.3 µM | 50 ± 17% | > 75% | > 50 µM | CC(C)(C)OC(=O)C[C@H](NS(=O)(=O)c1ccccc1)C(=O)N[C@H]1C[C@@H](CCc2ccc3cccnc3n2)C1 [Compound 37] |  |  |
|  |  |  | > 50 µM | O=C(O)C[C@H](NS(=O)(=O)c1ccccc1)C(=O)N[C@H]1C[C@@H](CCc2ccc3cccnc3n2)C1 [Compound 38] |  | inhibition at 50 µM (αvβ3; [6]): 43 ± 31% |
|  | 71 ± 16% | > 75% | 35.2 ± 6.5 µM | CC(C)(C)OC(=O)C[C@H](NS(=O)(=O)c1ccccc1)C(=O)N[C@H]1C[C@@H](CCc2ccc3c(n2)NCCC3)C1 [Compound 39] |  |  |
|  | 67 ± 16% | > 75% | > 50 µM | O=C(O)C[C@H](NS(=O)(=O)c1ccccc1)C(=O)N[C@H]1C[C@@H](CCc2ccc3c(n2)NCCC3)C1 [Compound 40] |  |  |
| 1.8 ± 0.4 µM | 85 ± 1.4% |  |  | CNc1cccc(CC[C@H]2C[C@@H](C(=O)NC[C@H](NS(=O)(=O)c3ccccc3)C(=O)OC)C2)n1 [Compound 53] | 62.9 ± 1.5% |  |

The remaining lines, values behind:

| SMILES | IC50 (αvβ3; [5]) | inhibition at 5 µM (αvβ3; [5]) | inhibition at 50 µM (αvβ3; [7]) | IC50 at 96 h (in vitro [4]) | inhibition at 10 µM [1] | also measured |
| --- | --- | --- | --- | --- | --- | --- |
| COC(=O)[C@H](CNC(=O)[C@H]1C[C@@H](CCc2ccc3c(n2)NCCC3)C1)NS(=O)(=O)c1c(C)cc(C)cc1C [Compound 1] | 0.34 ± 0.33 µM | 98.4 ± 1.9% |  |  | 60.2 ± 0.2% | half-life at 10 μM [2]: 5.4 min |
| COC(=O)[C@H](CCNC(=O)[C@H]1C[C@@H](Cc2ccc3cccnc3n2)C1)NS(=O)(=O)c1ccccc1 [Compound 17] |  |  |  |  | 23.3 ± 6.2% | inhibition at 50 µM (αvβ3; [6]): 13 ± 25% |
| COC(=O)[C@H](CCNC(=O)[C@H]1C[C@@H](Cc2ccc3cccnc3n2)C1)NS(=O)(=O)c1c(C)cc(C)cc1C [Compound 18] |  |  |  |  | 17.4 ± 3.7% | IC50 at 96 h (in vitro [3]): 59.2 ± 16.9 µM |
| COC(=O)[C@H](CCNC(=O)[C@H]1C[C@@H](CCc2ccc3cccnc3n2)C1)NS(=O)(=O)c1ccccc1 [Compound 19] |  | 54 ± 15% | > 75% | > 50 µM |  |  |
| COC(=O)[C@H](CCNC(=O)[C@H]1C[C@@H](CCc2ccc3cccnc3n2)C1)NS(=O)(=O)c1c(C)cc(C)cc1C [Compound 20] | 11.5 ± 5.3 µM | 43 ± 6% | > 75% |  | 55.7 ± 1.2% |  |
| COC(=O)[C@H](CCNC(=O)[C@H]1C[C@@H](Cc2ccc3c(n2)NCCC3)C1)NS(=O)(=O)c1ccccc1 [Compound 21] | 29.4 ± 2.1 µM | 4 ± 9% | > 75% |  | 49.5 ± 8.8% |  |
| COC(=O)[C@H](CCNC(=O)[C@H]1C[C@@H](Cc2ccc3c(n2)NCCC3)C1)NS(=O)(=O)c1c(C)cc(C)cc1C [Compound 22] |  | 83 ± 19% | > 75% | > 50 µM | 22.9 ± 5.7% | IC50 at 96 h (in vitro [3]): 46.4 ± 3.5 µM |
| COC(=O)[C@H](CCNC(=O)[C@H]1C[C@@H](CCc2ccc3c(n2)NCCC3)C1)NS(=O)(=O)c1ccccc1 [Compound 23] |  | 57 ± 13% | > 75% | > 50 µM |  |  |
| COC(=O)[C@H](CCNC(=O)[C@H]1C[C@@H](CCc2ccc3c(n2)NCCC3)C1)NS(=O)(=O)c1c(C)cc(C)cc1C [Compound 24] |  | 74 ± 10% | > 75% |  | 35 ± 9% |  |
| COC(=O)[C@H](CC(=O)N[C@H]1C[C@@H](CCc2ccc3cccnc3n2)C1)NS(=O)(=O)c1ccccc1 [Compound 28] |  |  |  |  | 28.5 ± 4.4% | inhibition at 50 µM (αvβ3; [6]): 42.4 ± 16.3% |
| COC(=O)[C@H](CC(=O)N[C@H]1C[C@@H](CCc2ccc3cccnc3n2)C1)NS(=O)(=O)c1c(C)cc(C)cc1C [Compound 29] |  |  |  |  | 70.4 ± 1.4% | inhibition at 50 µM (αvβ3; [6]): 56.6 ± 15.3% |
| O=C1C[C@H](NS(=O)(=O)c2ccccc2)C(=O)N1[C@H]1C[C@@H](CCc2ccc3cccnc3n2)C1 [Compound 30] |  | 39.9 ± 23.8% |  |  | 22.6 ± 4% |  |
| CNc1cccc(CC[C@H]2C[C@@H](C(=O)NC[C@H](NS(=O)(=O)c3c(C)cc(C)cc3C)C(=O)OC)C2)n1 [Compound 54] | 0.6 ± 0.7 µM | 84.9 ± 11.2% |  |  | 48.6 ± 1% | half-life at 10 μM [2]: 3.6 min; toxicity / deleterious effects (C57BL/6 mice; three dose levels up to 300 mg kg^−1 per day): No deleterious effects were observed; also recorded: non-toxic; bodyweight (C57BL/6 mice; up to 300 mg kg^−1 per day): remained within normal levels |
| CNc1cccc(CC[C@H]2C[C@@H](C(=O)NC[C@H](NS(=O)(=O)c3c(C)cc(C)cc3C)C(=O)O)C2)n1 [Compound 55] |  |  |  |  |  | stability of metabolite in liver ([2]; mouse liver homogenate): appears to be stable |
| CC(C)[C@@H]1NC(=O)[C@@H](Cc2ccccc2)NC(=O)[C@H](CC(=O)O)NC(=O)CNC(=O)[C@H](CCCN=C(N)N)NC1=O [cRGDfV, reference compound] |  |  |  |  |  | IC50 at 96 h (in vitro [3]): 69.2 ± 25.5 µM |
